Test results reported in US11465987B2, “Compounds for treatment of cancer” (ONCTERNAL THERAPEUTICS, INC., priority 2012, dated 2022).
Read-outs that look alike come from different tables or passages of the source.

Experiments:
[1] = system: PC-3 human prostate cancer cell line; test: cells
From the text: (§1) Cells were stained with SRB solution.

[2] = system: PPC-1 human prostate cancer cell line; test: Cytotoxicity (SRB) assay, PPC-1; type: cell-based; conditions: Homo sapiens
From the text: as §1

[3] = system: B16-F1 mouse melanoma cell line; test: Cytotoxicity (SRB) assay, B16-F1; type: cell-based; conditions: Mus musculus
[4] = system: DU 145 human prostate cancer cell line; test: Cytotoxicity (SRB) assay, DU 145; type: cell-based; conditions: Homo sapiens
From the text: as §1

[5] = system: melanoma and prostate cancer cell lines; test: Antiproliferative activity summarised over the cell line panel (range or average); type: cell-based
[6] = system: A375 human melanoma cell line; test: Cytotoxicity (SRB) assay, A375; type: cell-based; conditions: Homo sapiens
[7] = system: LNCaP human prostate cancer cell line; test: Cytotoxicity (SRB) assay, LNCaP; type: cell-based; conditions: Homo sapiens, LNCaP
From the text: as §1

[8] = system: WM-164 human melanoma cell line; test: Cytotoxicity (SRB) assay, WM-164; type: cell-based; conditions: Homo sapiens
[9] = Homo sapiens, read-out: IC50 PC-3, SRB assay, prostate cancer PC-3
[10] = PPC-1, SRB assay, prostate cancer PPC-1, read-out: IC50 PPC-1
[11] = B16-F1, SRB assay, mouse melanoma B16-F1, read-out: IC50 B16-F1
[12] = DU-145, SRB assay, prostate cancer DU 145, read-out: IC50 DU 145
[13] = A-375, SRB assay, human melanoma A375, read-out: IC50 A375
[14] = SRB assay, prostate cancer LNCaP, read-out: IC50 LNCaP
[15] = WM164, Table 11, read-out: IC50, WM164
[16] = PPC-1, Table 11, read-out: IC50, PPC-1
[17] = B16-F1, Table 11, read-out: IC50, B16-F1
[18] = DU-145, Table 11, read-out: IC50, Du 145
[19] = Tables 11-13, read-out: IC50 (average of all seven cell lines)
[20] = A-375, Table 11, read-out: IC50, A375
[21] = Table 11, read-out: IC50, LNCaP
[22] = WM164, Table 12, read-out: IC50 ± SEM, WM164 (converted)
[23] = Homo sapiens, read-out: IC50 ± SEM, PC-3, Table 12
[24] = B16-F1, Table 12, read-out: IC50 ± SEM, B16-F1 (converted)
[25] = A-375, Table 12, read-out: IC50 ± SEM, A375 (converted)
[26] = read-out: IC50 (range over tested cell lines)

## COc1cc(C(=O)c2cccc(-c3ccccc3)n2)cc(OC)c1OC [1c, (6-Phenylpyridin-2-yl)(3,4,5-trimethoxyphenyl)methanone]
[1]; [9]
  IC50: 32 ± 2 nM
[2]; [10]
  IC50: 25 ± 1 nM
[3]; [11]
  IC50: 39 ± 12 nM
[4]; [12]
  IC50: 33 ± 3 nM
[5]; range over prostate cancer cell lines, read-out: IC50 range against prostate cancer cells
  IC50: 12 to 35 nM
[6]; [13]
  IC50: 30 ± 14 nM
[7]; [14]
  IC50: 27 ± 2 nM

## COc1cc(C(=O)c2csc(-c3ccc(N(C)C)cc3)n2)cc(OC)c1OC [2o, (2-(4-(Dimethylamino)phenyl)thiazol-4-yl)(3,4,5-trimethoxyphenyl)methanone]
[1]; [9]
  IC50: 73 nM
[2]; [10]
  IC50: 73 nM
[3]; [11]
  IC50: 42 nM
[4]; [12]
  IC50: 121 nM
[6]; [13]
  IC50: 38 nM
[7]; [14]
  IC50: 65 nM

## COc1cc(/C=C\c2csc(-c3ccccc3)n2)cc(OC)c1OC [3a, (Z)-2-Phenyl-4-(3,4,5-trimethoxystyryl)thiazole]
[8]; WM164, read-out: IC50 WM164
  IC50: 10600 ± 5800 nM
[1]; Homo sapiens, read-out: IC50 PC-3
  IC50: > 10000 nM
[5]; Tables 1-3
  antiproliferative activity in words: lost activity

## COc1cc(Sc2cccc(-c3ccccc3)c2)cc(OC)c1OC [4a, Biphenyl-3-yl(3,4,5-trimethoxyphenyl)sulfane]
[1]; [9]
  IC50: > 10000 nM
[6]; [13]
  IC50: 1600 ± 400 nM
[7]; [14]
  IC50: 2300 ± 200 nM

## O=S(=O)(c1ccccc1)n1ccnc1-c1ccccc1 [10a, 2-phenyl-1-(phenylsulfonyl)-1H-imidazole]
[8]; [15]
  IC50: > 10000 nM
[1]; read-out: IC50, PC-3, Table 11
  IC50: > 10000 nM
[2]; [16]
  IC50: > 10000 nM
[3]; [17]
  IC50: > 10000 nM
[4]; [18]
  IC50: > 10000 nM
[5]; [19]
  IC50: > 10000 nM
[6]; [20]
  IC50: > 10000 nM
[7]; [21]
  IC50: > 10000 nM

## O=S(=O)(c1ccccc1)n1ccnc1-c1ccc(OCc2ccccc2)cc1 [10j, 2-(4-(benzyloxy)phenyl)-1-(phenylsulfonyl)-1H-imidazole]
[8]; [15]
  IC50: > 10000 nM
[1]; read-out: IC50, PC-3, Table 11
  IC50: > 10000 nM
[2]; [16]
  IC50: > 10000 nM
[3]; [17]
  IC50: > 10000 nM
[4]; [18]
  IC50: > 10000 nM
[5]; [19]
  IC50: > 10000 nM
[6]; [20]
  IC50: > 10000 nM
[7]; [21]
  IC50: > 10000 nM

## O=[N+]([O-])c1ccc(-c2nccn2S(=O)(=O)c2ccccc2)cc1 [10x, 2-(4-nitrophenyl)-1-(phenylsulfonyl)-1H-imidazole]
[8]; [15]
  IC50: > 10000 nM
[1]; read-out: IC50, PC-3, Table 11
  IC50: > 10000 nM
[2]; [16]
  IC50: > 10000 nM
[3]; [17]
  IC50: > 10000 nM
[4]; [18]
  IC50: > 10000 nM
[5]; [19]
  IC50: > 10000 nM
[6]; [20]
  IC50: > 10000 nM
[7]; [21]
  IC50: > 10000 nM

## COc1cc(C(=O)n2ccnc2-c2ccccc2)cc(OC)c1OC [12aaa, (2-phenyl-1H-imidazol-1-yl)(3,4,5-trimethoxyphenyl)methanone]
[8]; [15]
  IC50: > 10000 nM
[1]; read-out: IC50, PC-3, Table 11
  IC50: > 10000 nM
[2]; [16]
  IC50: > 10000 nM
[3]; [17]
  IC50: > 10000 nM
[4]; [18]
  IC50: > 10000 nM
[5]; [19]
  IC50: > 10000 nM
[6]; [20]
  IC50: > 10000 nM
[7]; [21]
  IC50: > 10000 nM

## COc1cc(C(=O)c2c[nH]c(-c3ccc(F)cc3)n2)cc(OC)c1OC [12ba, (2-(4-fluorophenyl)-1H-imidazol-4-yl)(3,4,5-trimethoxyphenyl)methanone]
[8]; [22]
  IC50: 73 ± 8 nM
[1]; [23]
  IC50: 169 ± 12 nM
[3]; [24]
  IC50: 320 ± 41 nM
[6]; [25]
  IC50: 205 ± 19 nM

## COc1ccc(-c2nc(C(=O)c3cc(OC)c(OC)c(OC)c3)c[nH]2)cc1 [12ca, (2-(4-methoxyphenyl)-1H-imidazol-4-yl)(3,4,5-trimethoxyphenyl)methanone]
[8]; [22]
  IC50: 31 nM
[1]; [23]
  IC50: 45 nM
[3]; [24]
  IC50: 108 nM
[5]; [26]
  IC50: 7.9 to 110 nM
[6]; [25]
  IC50: 30 nM
[7]; Table 12, read-out: IC50 ± SEM, LNCaP (converted)
  IC50: 31 nM

## Cc1ccc(-c2nc(C(=O)c3ccc(F)cc3)c[nH]2)cc1 [12db, (4-fluorophenyl)(2-(p-tolyl)-1H-imidazol-4-yl)methanone]
[8]; [22]
  IC50: 156 nM
[2]; PPC-1, Table 12, read-out: IC50 ± SEM, PPC-1 (converted)
  IC50: 54 nM
[3]; [24]
  IC50: 222 nM
[5]; [26]
  IC50: 7.9 to 110 nM

## COc1cc(C(=O)c2c[nH]c(-c3cc(OC)c(OC)c(OC)c3)n2)cc(OC)c1OC [12ea, (3,4,5-trimethoxyphenyl)(2-(3,4,5-trimethoxyphenyl)-1H-imidazol-4-yl)methanone]
[8]; [22]
  IC50: > 10000 nM
[3]; [24]
  IC50: > 10000 nM
[5]; text on Tables 11-12, unit as printed, read-out: IC50 (average of all seven cell lines)
  IC50: > 10000 nM
[6]; [25]
  IC50: 4800 nM

## COc1cc(C(=O)c2c[nH]c(-c3ccc(Cl)cc3)n2)cc(OC)c1OC [12fa, (2-(4-chlorophenyl)-1H-imidazol-4-yl)(3,4,5-trimethoxyphenyl)methanone]
[8]; [22]
  IC50: 26 nM
[1]; [23]
  IC50: 35 nM
[3]; [24]
  IC50: 168 nM
[5]; [26]
  IC50: 7.9 to 110 nM
[6]; [25]
  IC50: 43 nM
